Measurements taken from US20240425464A1, “Substituted Monohydrazides as Potent Antifungal Agents” (University of Kentucky Research Foundation, priority 2023, published 2024).
Converted amounts (≈) assume the structure as drawn. Like-named read-outs stand apart in the source and are kept apart here.

Assays:
Assay in all cases: MIC determination by in vitro antifungal assay
Assay type in all cases: cell-based
[1] = test system: Aspergillus flavus ATCC MYA-3631 (O); conditions: strain O = A. flavus ATCC MYA-3631
Description: (§1) 10 mg/mL stock solutions of compounds 1a-9j were prepared in dimethyl sulfoxide (DMSO) and were stored at −20° C. in the dark. The antifungal agent amphotericin B (AmB) was purchased from VWR (Radnor PA, USA). AmB was dissolved in DMSO at a final concentration of 5 mg/mL and was stored at −20° C., protected from light. Candida albicans American Type Culture Collection (ATCC) 10231 (strain A), C. albicans ATCC 64124 (B), and C. albicans ATCC MYA-2876 (C) were obtained from Utah State University. C. albicans ATCC 90819 (D), C. albicans ATCC MYA-2310 (E), C. albicans ATCC MYA-1237 (F), C. albicans ATCC MYA-1003 (G), Candida glabrata ATCC 2001 (H), Candida krusei ATCC 6258 (I), Candida parapsilosis ATCC 22019 (J), Cryptococcus neoformans ATCC MYA-895 (M), Aspergillus terreus ATCC MYA-3633 (N), and Aspergillus flavus ATCC MYA-3631 (0) were obtained from the American Type Culture Collection (ATCC; Manassas, VA, USA). Aspergillus nidulans ATCC 38163 (P) was obtained from University of Kentucky. Clinically derived Aspergillus fumigatus NRRL 163 (Q), A. fumigatus NRRL 5109 (R), and A. fumigatus NRRL 6113 (S) were obtained from Northern Regional Research Laboratory (NRRL). Candida auris 384 (K), C. auris 390 (L), and fungal strains 381-400 (including 10 C. auris (AR Bank #381-390), 3 Candida duobushaemulonii (AR Bank #391, AR Bank #392, and AR Bank #394), 2 Candida haemulonii (AR Bank #393 and AR Bank #395), 1 Kodameae ohmeri (AR Bank #396), 1 C. krusei (AR Bank #397), 1 Candida lusitaniae (AR Bank #398), and 2 Saccharomyces cerevisiae strains (AR Bank #399 and AR Bank #400)) were part of a larger fungal library from the AR Bank maintained by the Centers for Disease Control and Prevention (CDC; Atlanta, GA, USA). Filamentous fungi and yeasts were cultivated at 35° C. in RPMI 1640 medium (with L-glutamine, without sodium bicarbonate, Sigma-Aldrich, St. Louis, MO) buffered to a pH of 7.0 with 0.165 M morpholinepropanesulfonic acid (MOPS) buffer (Sigma-Aldrich). For cytotoxicity assays, HepG2 and the mouse macrophage cell line J774A.1 were obtained from University of Kentucky. The human embryonic kidney cell line, HEK-293, was bought from the ATCC. Mammalian cells were grown in Dulbecco's Modified Eagle's Medium (DMEM) (from VWR) with 10% fetal bovine serum (FBS) (from VWR) and 1% Pen/Strep (from ATCC). Cell lines were cultured at 37° C. with 5% CO2 and passaged by trypsinization with 0.05% trypsin: 0.53 mM EDTA (from Sigma-Aldrich).
(§2) The MIC values of compounds 1a-9j against yeast cells (strains A-P and 381-400) were determined in 96-well plates as described in the CLSI documents M27-A3 and M38-A2 with minor modifications.^2 A single colony of freshly prepared yeast cells was used to inoculate 5 mL of yeast extract peptone dextrose (YPD) broth prior to incubation overnight with shaking at 200 rpm at 35° C. From the actively growing yeast culture, 100 µL were then transferred to 900 μL of RPMI 1640 medium and re-adjusted to achieve OD600 of 0.12 (˜1×10^6 CFU/mL). The cell suspension was further diluted to achieve 1:100 in RPMI 1640 medium. 100 μL of cells were added to the wells of a 96-well microtiter plates that contained 100 µL of the compound solution to obtain concentrations of 0.06-31.3 μg/mL of compounds 1a-9j or AmB prior to incubation for 48 h at 35° C.
(§3) Finally, the activity of these monohydrazides was explored against […] non-Candida strains: Cryptococcus neoformans ATCC MYA-895 (M), Aspergillus terreus ATCC MYA-3633 (N), Aspergillus flavus ATCC MYA-3631 (O), Aspergillus nidulans ATCC 38163 (P), Aspergillus fumigatus NRRL 163 (Q), A. fumigatus NRRL 5109 (R), and A. fumigatus NRRL 6113 (S) (Tables 1A and 1B). The double dilution method was used with concentrations ranging from 0.06 to 31.3 j·tg mL^−1 for monohydrazides 1a-9j, and the commercially available positive antifungal control amphotericin B (AmB).

[2] = test system: Aspergillus terreus ATCC MYA-3633 (N); conditions: strain N = A. terreus ATCC MYA-3633
Description: as §1, §2, §3

[3] = test system: Aspergillus nidulans ATCC 38163 (P)
Description: as §1, §2, §3

[4] = test system: Cryptococcus neoformans ATCC MYA-895 (M)
Description: as §1, §2, §3

[5] = test system: Candida glabrata ATCC 2001 (H); conditions: ATCC 2001 in text
Description: as §1
(§4) The MIC values of compounds 1a-9j against yeast cells (strains A-P and 381-400) were determined in 96-well plates as described in the CLSI documents M27-A3 and M38-A2 with minor modifications.^2 A single colony of freshly prepared yeast cells was used to inoculate 5 mL of yeast extract peptone dextrose (YPD) broth prior to incubation overnight with shaking at 200 rpm at 35° C. From the actively growing yeast culture, 100 µL were then transferred to 900 μL of RPMI 1640 medium and re-adjusted to achieve OD600 of 0.12 (˜1×10^6 CFU/mL). The cell suspension was further diluted to achieve 1:100 in RPMI 1640 medium. 100 μL of cells were added to the wells of a 96-well microtiter plates that contained 100 µL of the compound solution to obtain concentrations of 0.06-31.3 μg/mL of compounds 1a-9j or AmB prior to incubation for 48 h at 35° C. […]

[6] = test system: Candida krusei ATCC 6258 (I)
Description: as §1, §4

[7] = test system: Candida parapsilosis ATCC 22019 (J)
Description: as §1, §4

[8] = strain P = A. nidulans ATCC 38163
[9] = strain M = C. neoformans ATCC MYA-895
[10] = strain H = C. glabrata ATCC 2004 (footnote)
[11] = strain J = C. parapsilosis ATCC 22019
[12] = Aspergillus flavus, read-out: MIC
[13] = Aspergillus terreus, read-out: MIC
[14] = Aspergillus nidulans, ATCC38163, strain P = A. nidulans ATCC 38163, read-out: MIC
[15] = Cryptococcus neoformans, strain M = C. neoformans ATCC MYA-895, read-out: MIC
[16] = Nakaseomyces glabratus, ATCC 2001 / ATCC 2004, strain H = C. glabrata ATCC 2004 (footnote), read-out: MIC
[17] = Pichia kudriavzevii, ATCC6258, strain I = C. krusei ATCC 6258, read-out: MIC
[18] = Lodderomyces parapsilosis, ATCC22019, strain J = C. parapsilosis ATCC 22019, read-out: MIC

Row | Compound | MIC [1] | MIC [2] | MIC [3, 8] | MIC [4, 9] | MIC [5, 10] | MIC ([6]; strain I = C. krusei ATCC 6258) | MIC [7, 11] | MIC [1, 12] | MIC [2, 13] | MIC [3, 14] | MIC [4, 15] | MIC [5, 16] | MIC [6, 17] | MIC [7, 18] | MIC ([4]; against strain M) | MIC ([6]; against strain I)
1 | C[C@@H]1[C@H](O)[C@@H](C)/C=C/C=C/C=C/C=C/C=C/C=C/C=C/[C@H](O[C@@H]2O[C@H](C)[C@@H](O)[C@H](N)[C@@H]2O)C[C@@H]2O[C@](O)(C[C@@H](O)C[C@@H](O)[C@H](O)CC[C@@H](O)C[C@@H](O)CC(=O)O[C@H]1C)C[C@H](O)[C@H]2C(=O)O [AmB, amphotericin B, reference compound] | 31.3 μg/mL^−1 | 3.9 μg/mL^−1 | 15.6 μg/mL^−1 | 7.8 μg/mL^−1 | 0.98 μg/mL^−1 | 0.98 μg/mL^−1 | 0.98 μg/mL^−1 | – | – | – | – | – | – | – | – | –
2 | O=C(NNc1cccc(F)c1)c1ccc(F)cc1F [Compound 1a] | >31.3 μg/mL^−1 | 3.9 μg/mL^−1 | 3.9 μg/mL^−1 | 1.95 μg/mL^−1 | 7.8 μg/mL^−1 | 1.95 μg/mL^−1 | 3.9 μg/mL^−1 | – | – | – | – | – | – | – | – | –
3 | O=C(NNc1cccc(Cl)c1)c1ccc(F)cc1F [Compound 1b] | – | – | – | – | – | – | – | > 31.3 µg/mL | 7.8 µg/mL (≈ 27.6 µM) | 3.9 µg/mL (≈ 13.8 µM) | 1.95 µg/mL (≈ 6.9 µM) | > 31.3 µg/mL | 0.98 µg/mL (≈ 3.47 µM) | 3.9 µg/mL (≈ 13.8 µM) | – | –
4 | COc1cccc(NNC(=O)c2ccc(F)cc2F)c1 [Compound 1c] | – | – | – | – | – | – | – | > 31.3 µg/mL | 3.9 µg/mL (≈ 14 µM) | 3.9 µg/mL (≈ 14 µM) | 0.49 µg/mL (≈ 1.76 µM) | 31.3 µg/mL (≈ 112 µM) | 0.98 µg/mL (≈ 3.52 µM) | 7.8 µg/mL (≈ 28 µM) | – | –
5 | O=C(NNc1ccc(F)cc1)c1ccc(F)cc1F [Compound 1d] | – | – | – | – | – | – | – | > 31.3 µg/mL | 3.9 µg/mL (≈ 14.6 µM) | 3.9 µg/mL (≈ 14.6 µM) | 0.49 µg/mL (≈ 1.84 µM) | 7.8 µg/mL (≈ 29.3 µM) | 1.95 µg/mL (≈ 7.32 µM) | 15.6 µg/mL (≈ 58.6 µM) | – | –
6 | O=C(NNc1ccc(Cl)cc1)c1ccc(F)cc1F [Compound 1e] | >31.3 μg/mL^−1 | 31.3 μg/mL^−1 | 31.3 μg/mL^−1 | 1.95 μg/mL^−1 | 3.9 μg/mL^−1 | 15.6 μg/mL^−1 | 31.3 μg/mL^−1 | – | – | – | – | – | – | – | – | –
7 | COc1ccc(NNC(=O)c2ccc(F)cc2F)cc1 [Compound 1f] | – | – | – | – | – | – | – | > 31.3 µg/mL | 31.3 µg/mL (≈ 112 µM) | 1.95 µg/mL (≈ 7.01 µM) | 0.98 µg/mL (≈ 3.52 µM) | 3.9 µg/mL (≈ 14 µM) | 0.98 µg/mL (≈ 3.52 µM) | 7.8 µg/mL (≈ 28 µM) | – | –
8 | O=C(NNc1ccc(F)cc1F)c1ccc(F)cc1F [Compound 1g] | – | – | – | – | – | – | – | > 31.3 µg/mL | 31.3 µg/mL (≈ 110 µM) | 1.95 µg/mL (≈ 6.86 µM) | 0.49 µg/mL (≈ 1.72 µM) | 1.95 µg/mL (≈ 6.86 µM) | 7.8 µg/mL (≈ 27.4 µM) | 7.8 µg/mL (≈ 27.4 µM) | – | –
9 | O=C(NNc1cc(F)ccc1F)c1ccc(F)cc1F [Compound 1h] | – | – | – | – | – | – | – | 15.6 µg/mL (≈ 54.9 µM) | > 31.3 µg/mL | 3.9 µg/mL (≈ 13.7 µM) | 0.98 µg/mL (≈ 3.45 µM) | > 31.3 µg/mL | 3.9 µg/mL (≈ 13.7 µM) | 31.3 µg/mL (≈ 110 µM) | 0.98 j·tg mL^−1 | –
10 | O=C(NNc1cc(F)cc(F)c1)c1ccc(F)cc1F [Compound 1i] | – | – | – | – | – | – | – | > 31.3 µg/mL | > 31.3 µg/mL | 7.8 µg/mL (≈ 27.4 µM) | 0.49 µg/mL (≈ 1.72 µM) | > 31.3 µg/mL | 1.95 µg/mL (≈ 6.86 µM) | 15.6 µg/mL (≈ 54.9 µM) | 0.49 j·tg mL^−1 | 1.95 j·tg mL^−1
11 | O=C(NNc1cc(Cl)cc(Cl)c1)c1ccc(F)cc1F [Compound 1j] | – | – | – | – | – | – | – | > 31.3 µg/mL | > 31.3 µg/mL | 15.6 µg/mL (≈ 49.2 µM) | 7.8 µg/mL (≈ 24.6 µM) | > 31.3 µg/mL | 1.95 µg/mL (≈ 6.15 µM) | > 31.3 µg/mL | – | 1.95 j·tg mL^−1
12 | O=C(NNc1cccc(F)c1)c1ccccn1 [Compound 2a] | 7.8 μg/mL^−1 | 1.95 μg/mL^−1 | 3.9 μg/mL^−1 | 0.12 μg/mL^−1 | 1.95 μg/mL^−1 | 0.24 μg/mL^−1 | 1.95 μg/mL^−1 | – | – | – | – | – | – | – | – | –
13 | COc1cccc(NNC(=O)c2ccc(F)cn2)c1 [Compound 3c] | >31.3 μg/mL^−1 | 3.9 μg/mL^−1 | 1.95 μg/mL^−1 | 0.24 μg/mL^−1 | – | 0.24 μg/mL^−1 | 3.9 μg/mL^−1 | – | – | – | – | – | – | – | – | –
